Measured values published in US20030232986A1, “Inhibitors of caspases” (Vertex Pharmaceuticals Incorporated, priority 1998, published 2003).
Read-outs that look alike come from different tables or passages of the source. Where a SMILES comes first, the peptide text is derived from it. [ ]: non-standard residue; d: D form. The star is where a group is joined. Tle = CC(C)(C)[C@H](N)C(=O)O; Bz = O=C(c1ccccc1)*

Key:
Caspase-1 = target: T1, Caspase-1 (Homo sapiens, UniProt P29466); assay: Caspase-1 enzyme inhibition (Ki); assay type: biochemical
T1 sequence (P29466 120-297 limits assumed): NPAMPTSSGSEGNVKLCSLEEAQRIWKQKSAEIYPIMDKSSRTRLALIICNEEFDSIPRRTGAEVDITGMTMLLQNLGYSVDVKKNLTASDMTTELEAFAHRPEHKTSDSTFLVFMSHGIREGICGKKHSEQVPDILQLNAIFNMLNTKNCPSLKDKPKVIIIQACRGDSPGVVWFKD
T1 sequence (P29466 317-404 limits assumed): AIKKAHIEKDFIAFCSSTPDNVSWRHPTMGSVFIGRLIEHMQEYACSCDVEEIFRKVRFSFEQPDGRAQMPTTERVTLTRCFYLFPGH
Experimental: Ki values for test compounds with the various caspases were obtained by the method of Margolin et al. (J. Biol. Chem., 272 pp. 7223-7228 (1997)). Assays were performed in 10 mM Tris (Sigma Corp, St Louis Mo.) pH 7.5, 1 mM Dithiothreitol (DTT, Research Organic INC, Cleveland, Ohio) and 0.1% CHAPS (Pierce, Rockford Ill.) at 37° C. For caspase-3, a solution of 8% glycerol was added to the assay buffer to improve enzyme stability. A 65 μL aliquot of the assay buffer and 5 μL aliquot of the appropriate dilutions of inhibitor in DMSO where pipetted into a 96 well plate, treated with 10 μL of caspase, then diluted in assay buffer (0.5-40 nM active protein by active site titration). A control containing DMSO but no compound was included for each determination. The plates were then incubated for 15 minutes at 37° C., before addition of the appropriate substrate (20 μL, final concentration 1-4×KM, final assay volume 100 μL) to initiate the reaction. Reaction rates were measured at 37° C. either by following the time dependant increase in absorbance at 405 nm (for the pNA substrates) or in fluorescence (Ex 390, Em 460) (for the AMC substrates). The rates obtained were plotted against inhibitor concentration and the data fit to the Morrison tight-binding equation for competitive inhibitors (Morrison, J. F., Biochem. Biophys. Acta, 185 pp. 269-286 (1969)). The substrates used for the individual assays were as follows:
Caspase-1 Suc-YVAD-pNA (Bachem, King of Prussia, Pa.) (final concentration in the assay 80 μM),

[1] = system: Human Peripheral Blood Mononuclear Cells (PBMC), mature IL-1β; assay: PBMC cell assay: IL-1β assay with human peripheral blood mononuclear cells; assay type: cell-based; conditions: LPS-stimulated human PBMC, mature IL-1β in supernatant by ELISA
Source text: IL-1β Assay with a Mixed Population of Human Peripheral Blood Mononuclear Cells (PBMC) or Enriched Adherent Mononuclear Cells
Processing of pre-IL-1β by ICE can be measured in cell culture using a variety of cell sources. Human PBMC obtained from healthy donors provides a mixed population of lymphocyte subtypes and mononuclear cells that produce a spectrum of interleukins and cytokines in response to many classes of physiological stimulators. Adherent mononuclear cells from PBMC provides an enriched source of normal monocytes for selective studies of cytokine production by activated cells.
An initial dilution series of test compound in DMSO or ethanol is prepared, with a subsequent dilution into RPMI-10% FBS media (containing 2 mM L-glutamine, 10 mM HEPES, 50 U and 50 ug/ml pen/strep) respectively to yield drugs at 4× the final test concentration containing 0.4% DMSO or 0.4% ethanol. The final concentration of DMSO is 0.1% for all drug dilutions. A concentration titration which brackets the apparent Ki for a test compound determined in an ICE inhibition assay is generally used for the primary compound screen.
Generally 5-6 compound dilutions are tested and the cellular component of the assay is performed in duplicate, with duplicate ELISA determinations on each cell culture supernatant.
Buffy coat cells isolated from one pint human blood (yielding 40-45 ml final volume plasma plus cells) are diluted with media to 80 ml and LeukoPREP separation tubes (Becton Dickinson) are each overlaid with 10 ml of cell suspension. After 15 min centrifugation at 1500-1800×g, the plasma/media layer is aspirated and then the mononuclear cell layer is collected with a Pasteur pipette and transferred to a 15 ml conical centrifuge tube (Corning). Media is added to bring the volume to 15 ml, gently mix the cells by inversion and centrifuge at 300×g for 15 min. The PBMC pellet is resuspended in a small volume of media, the cells are counted and adjusted to 6×10^6 cells/ml.
For the cellular assay, 1.0 ml of the cell suspension is added to each well of a 24-well flat bottom tissue culture plate (Corning), 0.5 ml test compound dilution and 0.5 ml LPS solution (Sigma #L-3012; 20 ng/ml solution prepared in complete RPMI media; final LPS concentration 5 ng/ml). The 0.5 ml additions of test compound and LPS are usually sufficient to mix the contents of the wells. Three control mixtures are run per experiment, with either LPS alone, solvent vehicle control, and/or additional media to adjust the final culture volume to 2.0 ml. The cell cultures are incubated for 16-18 hr at 37° C. in the presence of 5% CO2.
At the end of the incubation period, cells are harvested and transferred to 15 ml conical centrifuge tubes. After centrifugation for 10 min at 200×g, supernatants are harvested and transferred to 1.5 ml Eppendorf tubes. It may be noted that the cell pellet may be utilized for a biochemical evaluation of pre-IL-1β and/or mature IL-1β content in cytosol extracts by Western blotting or ELISA with pre-IL-1β specific antisera.
PBMC are isolated and prepared as described above. Media (1.0 ml) is first added to wells followed by 0.5 ml of the PBMC suspension. After a one hour incubation, plates are gently shaken and nonadherent cells aspirated from each well. Wells are then gently washed three times with 1.0 ml of media and final resuspended in 1.0 ml media. The enrichment for adherent cells generally yields 2.5-3.0×10^5 cells per well. The addition of test compounds, LPS, cell incubation conditions and processing of supernatants proceeds as described above.
Quantikine kits (R&D Systems) may be used for the measurement of mature IL-1β. Assays are performed according to the manufacturer's directions. Mature IL-1β levels of about 1-3 ng/ml in both PBMC and adherent mononuclear cell positive controls are observed. […]

[2] = substrate Suc-YVAD-pNA 80 μM, 37° C., pH 7.5

Structure (SMILES) | Ki (Caspase-1; [2]) [nM] | IC50 [1] [nM] | Ki (Caspase-1) [nM]
COc1cccc(Oc2ccc(OC)cc2C(=O)N[C@H](C(=O)N2CCC[C@H]2C(=O)N[C@H](C=O)CC(=O)O)C(C)C)c1 [Example 5aw] | < 10 | 1000 to 2000 | –
CC(C)[C@H](NC(=O)c1ccc(C(C)(C)C)cc1)C(=O)N1CCC[C@H]1C(=O)N[C@H](C=O)CC(=O)O [Example 5am] | < 10 | > 2000 | –
Cc1ccc2ccccc2c1C(=O)N[C@H](C(=O)N1CCC[C@H]1C(=O)N[C@H](C=O)CC(=O)O)C(C)C [Example 5g] | 10 to 1000 | 1000 to 2000 | –
CCCc1ccc(-c2ccc(C(=O)N[C@H](C(=O)N3CCC[C@H]3C(=O)N[C@H](C=O)CC(=O)O)C(C)C)cc2)cc1 [Example 5bd] | < 10 | 1000 to 2000 | –
CC(C)[C@H](NC(=O)c1csc(C2COc3ccccc3O2)n1)C(=O)N1CCC[C@H]1C(=O)N[C@H](C=O)CC(=O)O (stereo partly shown) [Example 5aq] | 10 to 1000 | > 2000 | –
C[C@H](NC(=O)c1nccc2ccccc12)C(=O)N1CCNC[C@H]1C(=O)N[C@H](C=O)CC(=O)O [Example 16a] | 10 to 1000 | < 500 | –
CC(=O)N1CCN(C(=O)[C@@H](NC(=O)c2nccc3ccccc23)C(C)C)[C@H](C(=O)N[C@H](C=O)CC(=O)O)C1 [Example 17e] | 10 to 1000 | 500 to 1000 | –
COc1c(Cl)cc(C(=O)N[C@H](C(=O)N2CCNC[C@H]2C(=O)N[C@H](C=O)CC(=O)O)C(C)C)cc1Cl [Example 15d] | 10 to 1000 | 1000 to 2000 | –
CCCN(CCC)S(=O)(=O)c1ccc(C(=O)N[C@H](C(=O)N2CCC[C@H]2C(=O)N[C@H](C=O)CC(=O)O)C(C)C)cc1 [Example 5ao] | 10 to 1000 | > 2000 | –
CC(C)[C@H](NC(=O)c1nccc2ccccc12)C(=O)N1CCNC[C@H]1C(=O)N[C@H](C=O)CC(=O)O [Example 15f] | 10 to 1000 | > 2000 | –
CC(=O)N1CCN(C(=O)[C@@H](NC(=O)c2ccc(N)c(Cl)c2)C(C)C)[C@H](C(=O)N[C@H](C=O)CC(=O)O)C1 [Example 17d] | 10 to 1000 | > 2000 | –
Cc1cc(C(=O)N[C@H](C(=O)N2CC[C@H](C)[C@H]2C(=O)N[C@H](C=O)CC(=O)O)C(C)C)cc(C)c1O [Example 26b] | < 10 | 500 to 1000 | –
C[C@H](NC(=O)[C@@H](NC(=O)c1ccccc1)C(C)(C)C)C(=O)N[C@H](C=O)CC(=O)O [Example 29m] (Bz-[Tle]-Ala-Asp-aldehyde) | < 10 | 500 to 1000 | –
CC(C)[C@H](N)C(=O)N1CC(c2ccccc2)[C@H]1C(=O)N[C@H](C=O)CC(=O)O (stereo partly shown) [Example 24b] | > 1000 | > 2000 | –
COc1c(Cl)cc(C(=O)N[C@H](C(=O)N2CCN(C(C)=O)C[C@H]2C(=O)N[C@H](C=O)CC(=O)O)C(C)C)cc1Cl [Example 17c] | < 10 | > 2000 | –
CC(C)[C@H](NC(=O)c1ccccc1)C(=O)N1CC[C@H](C)[C@H]1C(=O)N[C@H](C=O)CC(=O)O [Example 26a] | < 10 | 1000 to 2000 | –
CC(C)[C@H](NC(=O)c1nccc2ccccc12)C(=O)N1CCN(C)C[C@H]1C(=O)N[C@H](C=O)CC(=O)O [Example 17b] | 10 to 1000 | 1000 to 2000 | –
CC(C)[C@H](NC(=O)c1ccc(N)c(Cl)c1)C(=O)N1CCNC[C@H]1C(=O)N[C@H](C=O)CC(=O)O [Example 15e] | 10 to 1000 | > 2000 | –
COc1c(Cl)cc(C(=O)N[C@H](C(=O)N2CCC[C@H]2C(=O)N[C@H](C=O)CC(=O)O)C(C)C)cc1Cl [Example 5al] | < 10 | > 2000 | –
CS(=O)(=O)CC[C@H](NC(=O)c1ccc(N)c(Cl)c1)C(=O)N1CCC[C@H]1C(=O)N[C@H](C=O)CC(=O)O [Example 20j] | 10 to 1000 | > 2000 | –
CC(C)[C@H](NC(=O)c1ccc2ncsc2c1)C(=O)N1CCC[C@H]1C(=O)N[C@H](C=O)CC(=O)O [Example 5as] | < 10 | > 2000 | –
CC(C)Cc1ccc(C(C)C(=O)N[C@H](C(=O)N2CCC[C@H]2C(=O)N[C@H](C=O)CC(=O)O)C(C)C)cc1 (stereo partly shown) [Example 5v] | 10 to 1000 | > 2000 | 10 to 1000
CCCc1c(C(=O)N[C@H](C(=O)N2CCC[C@H]2C(=O)N[C@H](C=O)CC(=O)O)C(C)C)cnn1-c1ccc(Cl)cc1 [Example 5at] | 10 to 1000 | > 2000 | –
Cc1nn(C)c2ncc(C(=O)N[C@H](C(=O)N3CCC[C@H]3C(=O)N[C@H](C=O)CC(=O)O)C(C)C)c(SC(C)C)c12 [Example 5ar] | < 10 | > 2000 | –
CC(C)[C@H](NC(=O)c1ccccc1-c1ccc(C(F)(F)F)cc1)C(=O)N1CCC[C@H]1C(=O)N[C@H](C=O)CC(=O)O [Example 5ba] | < 10 | 1000 to 2000 | –
Cc1oc(-c2ccccc2)cc1C(=O)N[C@H](C(=O)N1CCC[C@H]1C(=O)N[C@H](C=O)CC(=O)O)C(C)C [Example 5au] | 10 to 1000 | > 2000 | –
CC(C)[C@H](NC(=O)c1ccc(CSc2ccccn2)o1)C(=O)N1CCC[C@H]1C(=O)N[C@H](C=O)CC(=O)O [Example 5av] | 10 to 1000 | > 2000 | –
